Reference: patent US7687651B2, “Method for the preparation of trans-or cis-diammoniumdichlorodihydroxoplatinum(IV) and the use thereof in the production of pharmaceutical active substances” (priority 2003, dated 2010)
“And” between values parts separate entries of the source, which are not always exact repeats. Equal entries are not always repeated.

Legend:
Type in all cases: cell-based, human
COLO 205 Colon carcinoma = assay: Cytotoxic activity of trans-oxoplatin, COLO 205
Protocol: (§1) trans-Oxoplatin was tested on a panel of cell lines, using double steps and an initial concentration of 40 μg/ml. As the IC50 values were not reached in most cases, cell survival at the highest concentration is indicated.

K562 Leukemia = assay: Cytotoxic activity of trans-oxoplatin, K562
Protocol: as §1

T-47D breast cancer = assay: Cytotoxic activity of trans-oxoplatin, T-47D
Protocol: as §1

[1] = system: WI-38 Embryonic lung fibroblasts; assay: Cytotoxic activity of trans-oxoplatin, WI-38
Protocol: as §1

HL-60 Leukemia = assay: Cytotoxic activity of trans-oxoplatin, HL-60
Protocol: as §1

HOS Osteosarcoma [2] = assay: Cytotoxic activity of trans-oxoplatin, HOS
Protocol: as §1

CRO1A Carcinoid = assay: Cytotoxic activity of trans-oxoplatin, CRO1A; conditions: several values given
Protocol: as §1

ASTRO Astrocytoma = assay: Cytotoxic activity of trans-oxoplatin, ASTRO
Protocol: as §1

U-87-MG Astrocytoma = assay: Cytotoxic activity of trans-oxoplatin, U-87-MG
Protocol: as §1

Fib3 Fibroblasts = assay: Cytotoxic activity of trans-oxoplatin, Fib3
Protocol: as §1

[3] = system: BxPC3 Pancreatic carcinoma; assay: Cytotoxic activity of trans-oxoplatin, BxPC3
Protocol: as §1

MDA-MB-231 Breast cancer = assay: Cytotoxic activity of trans-oxoplatin, MDA-MB-231; conditions: several values given
Protocol: as §1

ACHN Renal carcinoma = assay: Cytotoxic activity of trans-oxoplatin, ACHN
Protocol: as §1

[4] = system: MiaPaCa2 Pancreatic cancer; assay: Cytotoxic activity of trans-oxoplatin, MIAPaCa2; conditions: several values given
Protocol: as §1

HCT-15 Colon carcinoma [5] = assay: Cytotoxic activity of trans-oxoplatin, HCT-15
Protocol: as §1

SW620 Colon carcinoma = assay: Cytotoxic activity of trans-oxoplatin, SW620; conditions: SW 620 colon carcinoma cell line
Protocol: as §1

G-292 Osteosarcoma = assay: Cytotoxic activity of trans-oxoplatin, G-292; conditions: G-292 osteosarcoma cell line
Protocol: as §1

Panc1 Pancreatic cancer [6] = assay: Cytotoxic activity of trans-oxoplatin, PANC1
Protocol: as §1

PC3 Prostate = assay: Growth inhibition test on PC3 cells; conditions: for % Survival: PC3 cells; for IC50: PC3 Prostate
Protocol: (§2) Growth inhibition tests on various human cell lines show the different activities of cisplatin, cis-oxoplatin and oxaliplatin. […] The following Table illustrates the results produced with cisplatin, oxoplatin, carboplatin and oxaliplatin (the values specified are IC50 values in μg/ml, i.e., the concentration where 50% of the cells survive, nd=not determined; res=resistant=non-sensitive or IC50 value cannot be determined at a concentration of up to 40 μg/ml; IC=inhibition concentration).

HOS Osteosarcoma [7] = assay: Growth inhibition test on HOS cells; conditions: Table 1
Protocol: as §2

SaOS Osteosarcoma = assay: Growth inhibition test on SaOS cells; conditions: Table 1
Protocol: as §2

SIM Sarcoma = assay: Growth inhibition test on SIM cells
Protocol: as §2
(§3) What is seen primarily in children are leukemias, neuroblastomas and Ewing's sarcoma/peripheral neuroectodermal tumors (group of the Ewing family of tumors=EFT). The investigated tumor cell lines include three EFTs (EW-7, SIM and KAL), as well as two neuroblastoma cell lines (NB: LAN1 and LAN5; Los Angeles neuroblastoma=LAN) (see Table 3).

EW-7 (EFT) = assay: Effect on cell lines of typical tumors in children, EW-7; conditions: Table 3
Source text: as §3

CC1227 Colon carcinoma = assay: Growth inhibition test on CC1227 cells; conditions: Table 1
Protocol: as §2

SK-OV3 Ovarian cancer = assay: Growth inhibition test on SK-OV3 cells; conditions: Table 2
Protocol: as §2

HCT8 Colon carcinoma = assay: Growth inhibition test on HCT8 cells; conditions: Table 1
Protocol: as §2

M607 Melanoma = assay: Growth inhibition test on M607 cells; conditions: Table 1
Protocol: as §2

Me128 Melanoma = assay: Growth inhibition test on Me128 cells; conditions: Table 1
Protocol: as §2

BxPC3 Pancreatic cancer = assay: Growth inhibition test on BxPC3 cells
Protocol: (§4) The effect of cis-oxoplatin Ca and cis-oxoplatin was compared on 10 cell lines (Table 4).
(§5) (IC50 values specified in μg/ml; the test was performed as a formazan test).

SK-OV4 Ovarian cancer = assay: Growth inhibition test on SK-OV4 cells; conditions: Table 2; SK-OV4 Ovarian cancer
Protocol: as §2

BT20 Breast = assay: Formazan test on BT20 cells; conditions: Table 4
Protocol: as §4, §5

CRO2B Carcinoid = assay: Growth inhibition test on CRO2B cells; conditions: CRO2B Carcinoid
Protocol: as §4, §5

A498 Renal cells = assay: Growth inhibition test on A498 cells; conditions: Table 1
Protocol: as §2

SW480 Colon = assay: Growth inhibition test on SW480 cells; conditions: SW480 Colon
Protocol: as §4, §5

Colo205 Colon carcinoma = assay: Growth inhibition test on Colo205 cells
Protocol: as §4, §5

C320DM Colon carcinoma = assay: Growth inhibition test on C320DM cells; conditions: Table 1
Protocol: as §2

Panc1 Pancreatic cancer [8] = assay: Growth inhibition test on Panc1 cells; conditions: Table 1
Protocol: as §2

LAN5 (NB) = assay: Effect on cell lines of typical tumors in children, LAN5; conditions: Table 3
Source text: as §3

HT29 Colon carcinoma = assay: Growth inhibition test on HT29 cells
Protocol: as §4, §5

JVSO Melanoma = assay: Growth inhibition test on JVSO cells; conditions: Table 1
Protocol: as §2

LAN1 (NB) = assay: Effect on cell lines of typical tumors in children, LAN1; conditions: Table 3
Source text: as §3

CaCo-2 Colon = assay: Growth inhibition test on CaCo-2 cells; conditions: CaCo-2 Colon
Protocol: as §4, §5

HCT-15 Colon carcinoma [9] = assay: Growth inhibition test on HCT-15 cells; conditions: Table 1
Protocol: as §2

MDA-MB-435 Breast = assay: Formazan test on MDA-MB-435 cells; conditions: Table 4
Protocol: as §4, §5

MCF-7 Breast cancer = assay: Growth inhibition test on MCF-7 cells; conditions: Table 1
Protocol: as §2

[10] = system: HT29, SW480, SK-OV4, PC3, SIM, CaCO-2, DU145 and CRO2B cells; assay: Growth inhibition, IC50 over eight cell lines of Table 2; conditions: CaCO-2, DU145, CRO2B
Protocol: as §2
The activities differ according to the cell line.

Du145 Prostate = assay: Growth inhibition test on Du145 cells; conditions: Du145 Prostate
Protocol: as §4, §5

10 cell lines (Table 4) = assay: Formazan test, IC50 mean value for all cell lines of Table 4; conditions: mean over the 10 cell lines of Table 4
Protocol: as §4, §5

M518 Melanoma = assay: Growth inhibition test on M518 cells; conditions: Table 1
Protocol: as §2

U 373 MG Astrocytoma = assay: Growth inhibition test on U 373 MG cells; conditions: Table 2
Protocol: as §2

T47D Breast cancer = assay: Growth inhibition test on T47D cells
Protocol: as §4, §5

[11] = system: MiaPaCa2 Pancreatic cancer; assay: Growth inhibition test on MiaPaCa2 cells; conditions: Table 1
Protocol: as §2

SMILES: [NH2][Pt]([NH2])([OH])([OH])([Cl])[Cl] [TRAXO, trans-Oxoplatin]
- % Survival with 40 μg/ml TRAXO (COLO 205 Colon carcinoma): 109%
- % Survival with 40 μg/ml TRAXO (K562 Leukemia): 97%
- sensitivity of the cell line (T-47D breast cancer): non-sensitive
- % Survival with 40 μg/ml TRAXO (T-47D breast cancer; 40 μg/ml): 101%
- % Survival with 40 μg/ml TRAXO ([1]; WI-38, 40 μg/ml): 21%
- activity against the cell line ([1]; WI-38 embryonic pulmonary fibroblast cell line): considerable activity
- % Survival with 40 μg/ml TRAXO (HL-60 Leukemia; HL-60, 40 μg/ml): 0.5%
- activity against the cell line (HL-60 Leukemia; HL-60 leukemia cell line): considerable activity
- activity against the cell line (HOS Osteosarcoma [2]; HOS osteosarcoma cell line): considerable activity
- % Survival with 40 μg/ml TRAXO (HOS Osteosarcoma [2]; HOS, 40 μg/ml): 4.3%
- % Survival with 40 μg/ml TRAXO (CRO1A Carcinoid): 87% and 104% and 70%
- % Survival with TRAXO (20 μg/ml indicated) (ASTRO Astrocytoma; 20 μg/ml): 82%
- % Survival with 40 μg/ml TRAXO (ASTRO Astrocytoma; 40 μg/ml): 71%
- % Survival with 40 μg/ml TRAXO (U-87-MG Astrocytoma): 100%
- % Survival with 40 μg/ml TRAXO (Fib3 Fibroblasts): 91%
- sensitivity of the cell line [3]: non-sensitive
- % Survival with 40 μg/ml TRAXO ([3]; 40 μg/ml): 106%
- % Survival with 40 μg/ml TRAXO (MDA-MB-231 Breast cancer): 70% and 103% and 106%
- activity against the cell line (ACHN Renal carcinoma; ACHN renal carcinoma cell line): considerable activity
- % Survival with 40 μg/ml TRAXO (ACHN Renal carcinoma; ACHN, 40 μg/ml): 48%
- % Survival with 40 μg/ml TRAXO [4]: 92% and 83%
- % Survival with 40 μg/ml TRAXO (HCT-15 Colon carcinoma [5]): 100%
- activity against the cell line (SW620 Colon carcinoma): considerable activity
- activity against the cell line (G-292 Osteosarcoma): considerable activity
- % Survival with 40 μg/ml TRAXO (Panc1 Pancreatic cancer [6]): 100%

SMILES: N.N.[Cl-].[Cl-].[OH-].[OH-].[Pt+4] [cis-Oxoplatin, cis-diammoniumdichlorodihydroxoplatinum(IV)]
- % Survival (PC3 Prostate; Conc. 5 μg/ml): 105.2 ± 10.8%
- % Survival (PC3 Prostate; Conc. 10 μg/ml): 87.4 ± 11.8%
- % Survival (PC3 Prostate; Conc. 20 μg/ml): 56.7 ± 6.3%
- % Survival (PC3 Prostate; Conc. 40 μg/ml): 15.8 ± 2.7%
- IC50 (PC3 Prostate; Table 1): 7.5 µg/mL
- IC50 (PC3 Prostate; Table 2): 7.5 µg/mL
- IC50 (HOS Osteosarcoma [7]): 2.5 µg/mL
- IC50 (SaOS Osteosarcoma): 5 µg/mL
- IC50 (SIM Sarcoma; Table 2, SIM Sarcoma): 15.2 µg/mL
- IC50 (SIM Sarcoma; Table 3, SIM (EFT)): 14 µg/mL
- IC50 (EW-7 (EFT)): 1.25 µg/mL
- IC50 (CC1227 Colon carcinoma): 10 µg/mL
- IC50 (SK-OV3 Ovarian cancer): 15 µg/mL
- IC50 (HCT8 Colon carcinoma): 40 µg/mL
- IC50 (M607 Melanoma): 5 µg/mL
- IC50 (Me128 Melanoma): 2.5 µg/mL
- IC50 (BxPC3 Pancreatic cancer; Table 1, BxPC3 Pancreatic cancer): 2.5 µg/mL
- IC50 (BxPC3 Pancreatic cancer; Table 2, BxPC3 Pancreatic carcinoma): 13 µg/mL
- IC50 (BxPC3 Pancreatic cancer; Table 4, BxPC3 Pancreas, formazan test): 26.0 µg/mL
- IC50 (SK-OV4 Ovarian cancer): 16.2 µg/mL
- IC50 (BT20 Breast): 3.75 µg/mL
- IC50 (CRO2B Carcinoid; Table 2): 3.0 µg/mL
- IC50 (CRO2B Carcinoid; Table 4, formazan test): 3.0 µg/mL
- IC50 (A498 Renal cells): 20 µg/mL
- IC50 (SW480 Colon; Table 2): 8.2 µg/mL
- IC50 (SW480 Colon; Table 4, formazan test): 8.2 µg/mL
- IC50 (Colo205 Colon carcinoma; Table 1, Colo205 Colon carcinoma): res (res=resistant=non-sensitive or IC50 value cannot be determined at a concentration of up to 40 μg/ml)
- IC50 (Colo205 Colon carcinoma; Table 4, Colo205 Colon, formazan test): 29.0 µg/mL
- IC50 (C320DM Colon carcinoma): 2.5 µg/mL
- IC50 (Panc1 Pancreatic cancer [8]): 40 µg/mL
- IC50 (LAN5 (NB)): 3.5 µg/mL
- IC50 (HT29 Colon carcinoma; Table 1, HT29 Colon carcinoma): 20 µg/mL
- IC50 (HT29 Colon carcinoma; Table 2, HT29 Colon): 13.5 µg/mL
- IC50 (HT29 Colon carcinoma; Table 4, HT29 Colon, formazan test): 13.5 µg/mL
- IC50 (JVSO Melanoma): 10 µg/mL
- IC50 (LAN1 (NB)): 17 µg/mL
- IC50 (CaCo-2 Colon; Table 2): 1.52 µg/mL
- IC50 (CaCo-2 Colon; Table 4, formazan test): 1.52 µg/mL
- IC50 (HCT-15 Colon carcinoma [9]): 20 µg/mL
- IC50 (MDA-MB-435 Breast): 16.5 µg/mL
- IC50 (MCF-7 Breast cancer): 5.5 µg/mL
- IC50 values of these cells (mean ± spread) [10]: 10.5 ± 6.4 µg/mL
- IC50 (Du145 Prostate; Table 2): 19.0 µg/mL
- IC50 (Du145 Prostate; Table 4, formazan test): 19.0 µg/mL
- IC50 (±SEM) mean value for all cell lines (10 cell lines (Table 4)): 12.3 ± 3.2 µg/mL
- IC50 (M518 Melanoma): res (res=resistant=non-sensitive or IC50 value cannot be determined at a concentration of up to 40 μg/ml)
- IC50 (U 373 MG Astrocytoma): 15 µg/mL
- IC50 (T47D Breast cancer; Table 1, T47D Breast cancer): 2.5 µg/mL
- IC50 (T47D Breast cancer; Table 2, T47D Breast cancer): 3 µg/mL
- IC50 (T47D Breast cancer; Table 4, T47D Breast, formazan test): 2.5 µg/mL
- IC50 [11]: 5 µg/mL
